Several values for one entry are separate records, joined by “and”; a condition that tells them apart may be missing. Identical values can stand only once.
Columns and labels:
[1] = tested on: AsPC-1 and NCI-H441 cells; assay: pERK (MSD) and proliferation (CTG) in AsPC-1 and NCI-H441 cells, CYPA inhibitor co-treatment or PPIA KO; format: cell-based, human;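 as to Proliferation inhibition with CYPA inhibitor competition: luminescence as % of CYPA inhibitor-only control with 3 mM sanglifehrin A competitor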
[2] = tested on: Capan-1, SW620, AsPC-1, HPAC, NCI-H358, PSN1, HUPT3, HCT 116, Hs 766T, SK-MEL-30, KU1919, NCI-H1975, A375; assay: Proliferation (CTG) in human cancer cell lines; format: cell-based
Procedure: Data points show biological duplicates normalized to vehicle control. […] Data points show biological duplicates normalized to vehicle control from 1 of 2–26 independent experiments. Source Data
Alternatively, cells were seeded in round-bottom ultra-low attachment 96-well plates, centrifuged at 1,000 rpm for 10 min to pellet the cells, and incubated overnight or up to 72 h to allow for 3D spheroid formation. […] Cell viability was determined by CellTiter-Glo 2.0 reagent (2D CTG) (Promega, G9243) or 3D CellTiter-Glo reagent (3D CTG) (Promega, G9683) according to the manufacturer’s protocols. Luminescence was detected using a SpectraMax M5 Plate Reader (Molecular Devices) of Perkin Elmer Enspire. Luminescence signal was normalized to vehicle-treated wells (normalized signal (%) = (luminescence (treated)/mean luminescence (vehicle)) × 100%). […] Data were plotted as log [inhibitor (M)], and a four-parameter sigmoidal concentration response model was fitted to the data to calculate EC50. […] Pa16C MEK1 mutant cells were evaluated by live-cell counting using Calcein AM and a SpectraMax i3X multi-mode detection platform (Molecular Devices). Growth percentages were calculated by normalizing the treated cell counts to their respective untreated cell counts.

[3] = biological target: KRAS^G12C (Homo sapiens, UniProt P01116+P62937, G12C); assay: Biochemical RAS–RAF (BRAF RBD) disruption, TR-FRET; parameters: His6-TEV (N); made in house; host or cells: BL21(DE3) Escherichia coli
Excerpt: (§1) Time-resolved fluorescence resonance energy transfer (TR-FRET) was used as previously described to assess disruption of the interactions between wild-type RAS or the mutant oncogenic RAS proteins and the RAS-binding domain of BRAF, and to assess the induction of interactions between the RAS proteins and CYPA[12].

[4] = biological target: KRAS^G12V (Homo sapiens, UniProt P01116+P62937, G12V); assay: Biochemical RAS–RAF (BRAF RBD) disruption, TR-FRET; parameters: His6-TEV (N); made in house; host or cells: BL21(DE3) Escherichia coli
Excerpt: as §1

Compound: CCn1c(-c2cc(N3CCN(C4CC4)CC3)cnc2[C@H](C)OC)c2c3cc(ccc31)-c1csc(n1)C[C@H](NC(=O)[C@H]1[C@@H]3COC[C@@H]31)C(=O)N1CCC[C@H](N1)C(=O)OCC(C)(C)C2 [RMC-7977]
- activity at 0.1 µM ([1]; Homo sapiens, NCI-H441, read-out: Proliferation inhibition in PPIA KO cells treated with RMC-7977, NCI-H441, 100.00 nM): 23.6%
- activity at 0.3 µM ([1]; Homo sapiens, NCI-H441, read-out: Proliferation inhibition in PPIA KO cells treated with RMC-7977, NCI-H441, 300.00 nM): 27.5%
- activity at 5.08 pM ([1]; Homo sapiens, NCI-H441, read-out: Proliferation inhibition in PPIA KO cells treated with RMC-7977, NCI-H441, […]): 120%
- activity at 0.00041 µM ([1]; Homo sapiens, NCI-H441, read-out: pERK inhibition in PPIA KO cells treated with RMC-7977, NCI-H441, 0.41 nM): 88.1%
- activity at 0.0037 µM ([1]; Homo sapiens, NCI-H441, read-out: pERK inhibition in PPIA KO cells treated with RMC-7977, NCI-H441, 3.70 nM): 11.8%
- Proliferation inhibition with CYPA inhibitor competition ([1]; NCI-H441, RMC-7977 0.0152 nM): 112.235 and 120.202
- pERK signal remaining (% of control) with CYPA inhibitor competition ([1]; NCI-H441, RMC-7977 0.0152 nM): 101.09 and 141.742 and 99.9715 and 108.212
- Proliferation inhibition with CYPA inhibitor competition ([1]; NCI-H441, RMC-7977 0.0457 nM): 127.307 and 133.477
- pERK signal remaining (% of control) with CYPA inhibitor competition ([1]; NCI-H441, RMC-7977 0.0457 nM): 116.541 and 138.344 and 94.9151 and 96.9475
- Proliferation inhibition with CYPA inhibitor competition ([1]; NCI-H441, RMC-7977 0.41 nM): 83.6742 and 95.5735 and 83.4726 and 112.168
- Proliferation inhibition with CYPA inhibitor competition ([1]; NCI-H441, RMC-7977 3.70 nM): 34.5277 and 37.2472 and 40.6838 and 40.7762
- pERK signal remaining (% of control) with CYPA inhibitor competition ([1]; NCI-H441, RMC-7977 3.70 nM): 11.9888 and 19.4005 and 10.392 and 10.3218
- Proliferation inhibition with CYPA inhibitor competition ([1]; NCI-H441, RMC-7977 11.11 nM): 26.6151 and 22.9193 and 35.0508 and 37.4802
- Proliferation inhibition with CYPA inhibitor competition ([1]; NCI-H441, RMC-7977 33.33 nM): 29.0347 and 22.8651 and 29.7232 and 34.4423
- Proliferation inhibition with CYPA inhibitor competition ([1]; NCI-H441, RMC-7977 100.00 nM): 28.8791 and 27.2758 and 27.7958 and 31.2386
- Proliferation inhibition with CYPA inhibitor competition ([1]; NCI-H441, RMC-7977 300.00 nM): 32.3111 and 29.0775 and 27.5922 and 25.4872
- Cell proliferation (CellTiter-Glo) ([2]; ASPC1, RMC-7977 1.52 nM): 68.8907 and 77.7752
- Cell proliferation (CellTiter-Glo) ([2]; ASPC1, RMC-7977 4.57 nM): 54.6049 and 56.084
- Cell proliferation (CellTiter-Glo) ([2]; ASPC1, RMC-7977 13.72 nM): 31.4521 and 36.2763
- Cell proliferation (CellTiter-Glo) ([2]; ASPC1, RMC-7977 41.15 nM): 19.3277 and 20.3014
- Cell proliferation (CellTiter-Glo) ([2]; ASPC1, RMC-7977 123.46 nM): 12.8203 and 13.4559
- Cell proliferation (CellTiter-Glo) ([2]; ASPC1, RMC-7977 370.39 nM): 9.7785 and 11.4734
- Cell proliferation (CellTiter-Glo) ([2]; ASPC1, RMC-7977 1111.14 nM): 8.521 and 9.0438
- Cell proliferation (CellTiter-Glo) ([2]; ASPC1, RMC-7977 3333.41 nM): 6.811 and 10.0312
- Cell proliferation (CellTiter-Glo) ([2]; ASPC1, RMC-7977 10000.00 nM): 5.308 and 5.788
- Cell proliferation (CellTiter-Glo) ([2]; CAPAN1, RMC-7977 1.52 nM): 59.9636 and 63.7997
- Cell proliferation (CellTiter-Glo) ([2]; CAPAN1, RMC-7977 4.57 nM): 35.7372 and 42.3141
- Cell proliferation (CellTiter-Glo) ([2]; CAPAN1, RMC-7977 13.72 nM): 18.382 and 18.5053
- Cell proliferation (CellTiter-Glo) ([2]; CAPAN1, RMC-7977 41.15 nM): 11.8827 and 13.681
- Cell proliferation (CellTiter-Glo) ([2]; CAPAN1, RMC-7977 123.46 nM): 8.811 and 11.6796
- Cell proliferation (CellTiter-Glo) ([2]; CAPAN1, RMC-7977 370.39 nM): 5.4975 and 10.0571
- Cell proliferation (CellTiter-Glo) ([2]; CAPAN1, RMC-7977 1111.14 nM): 6.166 and 6.972
- Cell proliferation (CellTiter-Glo) ([2]; CAPAN1, RMC-7977 3333.41 nM): 4.455 and 5.8786
- Concentration-response, normalized signal (replicate wells) ([2]; HCT116, RMC-7977 4.00 nM): 82.5863 and 97.7262 and 86.8037 and 89.4627 and 85.957 and 97.0725 and 88.0274 and 98.1156 and 87.4457 and 99.4211 and 79.8906 and 84.8325
- Concentration-response, normalized signal (replicate wells) ([2]; HCT116, RMC-7977 36.01 nM): 18.5896 and 19.6721 and 20.3034 and 20.9024 and 39.3935 and 41.5603 and 31.7309 and 32.7207 and 34.8483 and 44.0944 and 29.6731 and 29.9889
- Concentration-response, normalized signal (replicate wells) ([2]; HCT116, RMC-7977 324.09 nM): 2.22 and 2.64 and 1.664 and 2.991 and 5.879 and 6.569 and 5.425 and 6.586 and 5.001 and 5.957 and 2.283 and 3.5458
- Concentration-response, normalized signal (replicate wells) ([2]; HCT116, RMC-7977 972.25 nM): 1.618 and 2.167
- Concentration-response, normalized signal (replicate wells) ([2]; cell line heading above the shown rows, RMC-7977 10000.00 nM): 4.998 and 6.7184
- EC50 [3]: 31.8 nM
- EC50 [4]: 44 nM
